# Measurements: article PMC7076385, “Evaluation of the Solid Dispersion System Engineered from Mesoporous Silica and Polymers for the Poorly Water Soluble Drug Indomethacin: In Vitro and In Vivo” (Pharmaceutics, 2020)
# Legend:
# [1] = Solubility studies (crystalline and amorphous solubility, UV analysis); format: physicochemical; conditions: phosphate buffered saline (PBS), pH 6.8 PBS, 25 °C
# Experimental: The “crystalline solubility” was measured by the following method. An excess amount of crystal IMC powder was added to 10 mL of pH 6.8 PBS. These mixtures were kept at 25 °C and stirred at 300 rpm for 48 h. Ultracentrifugation was performed at 12,000 rpm and 25 °C for 30 min to separate excess solids using an Optima L-100XP ultracentrifuge (Beckman Coulter Inc., Brea, CA, USA). Then 5 mL of the supernatant was taken for ultraviolet (UV) spectroscopy analysis. All samples were prepared in triplicate.
# The solubility of the amorphous IMC in the presence of excipients was also determined by calculating the solution concentration evolved from SDs at 25 °C after 48 h. Briefly, IMC–SDs were prepared by solvent evaporation directly from scintillation vials using a rotary evaporator. Then, 10 mL of pH 6.8 PBS was added. Solution concentration measurements were conducted following the ultraviolet (UV) spectroscopy analysis. The concentration of IMC was calculated with a standard curve built before.
# [2] = In vitro dissolution, USP II paddle method; format: physicochemical; conditions: at 90 min, pH 6.8 PBS
# Experimental: The optimum ratios of all solid dispersion carriers were selected by drug release experiments in vitro. In vitro dissolution studies on pure IMC and SDs with different carriers were carried out using the United States Pharmacopeia Apparatus II (USP II) paddle method (100 rpm, 37 °C, and 250 mL pH 6.8 phosphate buffer solutions) with a ZRS-8G dissolution tester (Shanghai, China). Ten milligrams of sample powder was placed in the dissolution medium, and 5 mL of pH 6.8 phosphate buffer solution (PBS, artificial intestinal fluid) was withdrawn at pre-designed time intervals (0, 5, 10, 15, 20, 30, 40, 50, 60 and 90 min) prior to filtration. The concentration of samples was analyzed using an UV spectrophotometer (756 PC UV-2200, Shanghai, China) at 320 nm. All measurements were repeated three times.
# [3] = In vivo pharmacokinetic study after oral administration; conditions: male, Sprague-Dawley, rat, plasma, rats, 40 mg/kg
# Experimental: Male Sprague–Dawley rats (body weight 200 ± 20 g) were randomly divided into three groups (n = 3). Sprague–Dawley rats (200 ± 20 g) were obtained from Animal Experiment Center of Shanghai Institute of Material Medica, Shanghai, China. All animal experiments were performed by strictly following Institutional Animal Care and Use Committee (IACUC) guidelines (71044, 10 August 2019). Prior to the experiments, the rats were fasted overnight with free access to water. Aqueous suspensions of IMC, SDs with MSNs (F3), SDs with MSNs and Kollicoat IR (F6), and SDs with MSNs and HPMC (F9) at 40 mg/kg were orally administered, respectively, and blood samples (0.5 mL) were collected at different time points (0, 0.5, 1, 2, 4, 6, 8, 12, and 24 h) in microcentrifuge tubes containing heparin by retro-orbital venipuncture technique. The blood samples were immediately centrifuged at 4000 rpm for 10 min, and the supernatant was collected for further processing.
# Plasma samples were processed as follows: 200 µL plasma samples were mixed with 20 µL of an internal standard solution (0.5 mg/mL naproxen), 90 µL 10% KH2PO4, and 1 mL dichloromethane, and then the mixture was vortexed for 3 min. Then, the mixture solutions were centrifuged at 10,000 rpm for 4 min, the organic layer was remained, and then the organic layer was evaporated in a gentle stream of nitrogen at room temperature. The residue was suspended in 100 µL of the mobile phase (acetonitrile:0.01 M H3PO4 = 55:45). After vortex mixing and centrifugation, samples were analyzed using HPLC.
# [4] = based on Equations (6) and (7); cited from earlier work
smiles,measurement,setting,value
"COc1ccc2c(c1)c(CC(=O)O)c(C)n2C(=O)c1ccc(Cl)cc1 [IMC, Indomethacin]",solubility at 48 h,[1],23 µg/mL
same,Folds (increase of cumulative dissolution rate compared to pure IMC),[2],1.00 ± 0.28 folds
same,Cumulative Drug Dissolution Rate (%),"[2]; 37 °C, 100 rpm, mean ± SD, n = 3",27.43 ± 0.96%
same,Tmax,[3],4 h
same,AUC(0-t),"[3]; mean ± SD, n = 3",1240 ± 189 µg·h/mL
same,Cmax,"[3]; mean ± SD, n = 3",125 ± 3.8 µg/mL
same,Hansen solubility parameter δ,[4],24.8 MPa^1/2
